One assay relates to iPS cells 201B7 strain. The assay is described as follows: Cell number during ectodermal differentiation-induction in medium with β-NMN (Example 2). Type of assay: cell-based, human. The settings on record: ectoderm differentiation-inducing medium containing β-NMN 0.1, 0.25 or 1 mM; 2nd, 4th, 7th day after seeding; versus medium not containing β-NMN. As for the experimental part:
The effect of β-NMN on the ectodermal differentiation-induction of the iPS cells was examined. The 201B7 strain was used as the iPS cells. The iPS cells were seeded in a 12-well plate coated with Matrigel (manufactured by Corning Incorporated) according to the manufacturer's protocol at 8×10^5 cells/well. The cells in the 12-well plate were cultured in a culture medium prepared by adjusting an ectodermal differentiation-inducing culture medium of “STEMdiff Trilineage Differentiation kit” (manufactured by STEMCELL Technologies) to have a final concentration of β-NMN of 0, 0.1, 0.25, or 1 mM, and a final concentration of Rock inhibitor of 10 μM for 1 day. From the 1st day after seeding, the medium was replaced every day with a culture medium obtained by removing the Rock inhibitor from the culture medium at the time of seeding. Cells of the 2nd, 4th or 7th day after seeding were sampled and the cell numbers were counted. The time-dependent change in cell number of each sample is shown in FIG. 2(A), and the cell numbers of the 7th day after seeding are shown in FIG. 2(B). As a result, the number of cells cultured in the ectoderm differentiation-inducing culture medium containing β-NMN was larger than the number of cells cultured in the medium not containing β-NMN.

A further assay deals with iPS cells 253G1 strain. Put plainly: Cell number in endodermal differentiation-induction after undifferentiated culture with β-NMN (Example 5). The note with it: β-NMN 0.25 or 1 mM in culture medium for iPS cells before endodermal differentiation-induction; 7th day after seeding; versus no β-NMN. Type of assay: cell-based. The protocol: The effects of culturing in the presence of β-NMN before induction of differentiation on the endodermal differentiation-induction of iPS cells was examined. As the iPS cells, the 253G1 strain was used. iPS cells seeded on a culture dish coated with Matrigel (manufactured by Corning Incorporated) according to the manufacturer's protocol were cultured in a culture medium prepared by adjusting a culture medium for iPS cells to have a final concentration of β-NMN 0, 0.25 or 1 mM, and a final concentration of Rock inhibitor of 10 μM for 1 day. From the 1st day after seeding, the culture medium was replaced every day with a culture medium obtained by removing the Rock inhibitor from the culture medium at the time of seeding. When the confluent reached 70 to 80%, the iPS cells were detached from the culture dish and collected. The collected iPS cells were seeded at 3×10^5 cells/well in a 24-well plate coated with Matrigel (manufactured by Corning Incorporated) according to the manufacturer's protocol. The cells in the 24-well plate were cultured for 1 day in a culture medium prepared by removing β-NMN from the culture medium when culturing in the culture dish and adjusting to have a final concentration of Rock inhibitor of 10 μM. […] Cells on the 7th day after seeding were sampled and the numbers of cells were counted.

Assay [1] deals with Human adipose tissue-derived mesenchymal stem cells. Put plainly: qPCR of PPARγ and adiponectin genes after adipocyte differentiation-induction of mesenchymal stem cells grown with β-NMN (Example 9). Type of assay: cell-based. The note with it: GAPDH internal standard, 0.1 mM or 0.25 mM of β-NMN, 0 mM defined as 1, 14th day of adipocyte differentiation-induction. From the text: The effects of culturing in the presence of β-NMN before adipocyte differentiation-induction of mesenchymal stern cells were examined. In the same manner as in Example 8, Human adipose tissue-derived mesenchymal stem cells (manufactured by Lonza, Cat #PT5006) were used as the mesenchymal stem cells. As a growth culture medium, a culture medium prepared by appropriately adding β-MNM to “MSCGM Bullet Kit” (manufactured by Lonza, Cat #PT3001) was used as in Example 8. As an adipocyte differentiation-inducing culture medium, a culture medium prepared by adjusting a DMEM-High Glucose medium to have a final concentration of fetal bovine serum of 10% by volume, a final concentration of IBMX of 0.5 mM, a final concentration of dexamethasone of 1 μM, a final concentration of indomethacin of 200 μM, and a final concentration of penicillin-streptomycin of 0.1% was used. The culture of the mesenchymal stem cells before differentiation-induction was performed in the same manner as in Example 8. The differentiation induction was performed in the same manner as in Example 8 except that the adipocyte differentiation-inducing culture medium was used instead of the bone differentiation-inducing culture medium. […] The relative expression level of each gene was determined from the results of qPCR of cells that were induced to differentiate into adipocytes. […]
A general note: Quantitative PCR measures a nucleic acid by following its amplification.

On to `NC(=O)c1ccc[n+]([C@@H]2O[C@H](COP(=O)([O-])O)[C@@H](O)[C@H]2O)c1` [β-NMN, β-nicotinamide mononucleotide], for which, in the assay on iPS cells 201B7 strain, the number of cells result was “larger”. For the same compound, the cell number entry in the assay on iPS cells 253G1 strain is on record as “no clear difference”. Moreover, in assay [1], the “relative expression level of the PPARγ gene” value is reported as “increase” and the “relative expression level of the adiponectin gene” value is “increase”.

Source of the values: patent publication US11814652B2, “Pluripotent stem cell differentiation-promoting agent” (Oriental Yeast Co., Ltd., priority 2018, dated 2023).
